The first assay addresses T1, recombinant CYP-17 (Homo sapiens, UniProt P05093).
T1 construct: expressed in transfected cells
T1 sequence (P05093 1-508): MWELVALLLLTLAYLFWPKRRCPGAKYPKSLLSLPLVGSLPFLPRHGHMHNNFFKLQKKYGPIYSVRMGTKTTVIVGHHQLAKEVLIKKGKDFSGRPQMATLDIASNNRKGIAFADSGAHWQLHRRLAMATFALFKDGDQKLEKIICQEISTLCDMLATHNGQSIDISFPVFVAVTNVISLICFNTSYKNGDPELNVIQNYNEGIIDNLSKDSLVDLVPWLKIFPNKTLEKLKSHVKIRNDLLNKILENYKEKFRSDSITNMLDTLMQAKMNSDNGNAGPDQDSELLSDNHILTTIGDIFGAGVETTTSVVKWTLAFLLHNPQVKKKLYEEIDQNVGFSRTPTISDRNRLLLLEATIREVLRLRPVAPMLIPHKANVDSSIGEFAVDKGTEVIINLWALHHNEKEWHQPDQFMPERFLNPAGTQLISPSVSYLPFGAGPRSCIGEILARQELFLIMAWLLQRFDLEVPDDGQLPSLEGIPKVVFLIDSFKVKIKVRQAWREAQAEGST
Nature of the assay: Cyp17 assay: AD293 cells over-expressing recombinant CYP-17, 3H-acetic acid release from [21-3H] 17α-hydroxyl-Pregnenolone. The class given is cell-based. Conditions: AD293 cells, eight concentrations 10 μM to 4.5 nM. As to the method: Cyp17 assay protocol: AD293 cells that stably over-express recombinant CYP-17 were seeded in 96 well plates coated with poly D-lysine (15,000 cell per well) and incubated at 37° C. for 24 hours in Dulbecco's Modified Eagle Medium (DMEM) with Fetal Bovine Serum (FBS) that is stripped of hormones by charcoal treatment. The media is then removed, the cells are washed once with Phosphate buffer saline solution, and 50 μL Dulbecco's Modified Eagle Medium (DMEM) with Fetal Bovine Serum (FBS) that is stripped of hormones by charcoal treatment is added. Compounds of the disclosure are then added to the wells in eight concentration spanning 10 μM to 4.5 nM, and the plates are incubated for an additional 60 minutes at 37° C. [21-^3H] […] The media is then collected, 200 μL of chloroform is added, and the mixture is shaken for 1 hour. The aqueous layer is then separated and analyzed for the presence of ^3H-acetic acid using a Perkin Elmer Topcount NXT to determine IC50s of the compounds of the disclosure.
`COC(=O)[C@H](Cc1ccccc1)NC(=O)N1CCN(c2ccc(OC[C@@H]3CO[C@@](Cn4ccnc4)(c4ccc(Cl)cc4Cl)O3)cc2)CC1` [Entry 17]: the 50% inhibitory concentration (IC50) was 0.043 µM.

On to `COC(=O)[C@@H](NC(=O)N1CCN(c2ccc(OC[C@H]3CO[C@](Cn4ccnc4)(c4ccc(Cl)cc4Cl)O3)cc2)CC1)C(C)C` [Entry 18], for which the half-inhibitory concentration (IC50) was found to be 0.137 µM.

With `COC(=O)[C@H](Cc1ccccc1)NC(=O)N1CCN(c2ccc(OC[C@H]3CO[C@](Cn4ccnc4)(c4ccc(Cl)cc4Cl)O3)cc2)CC1` [Entry 19], the IC50 came to 0.25 µM.

As for `O=S(=O)(CC(F)(F)F)N1CCN(c2ccc(OC[C@@H]3CO[C@@](Cn4ccnc4)(c4ccc(Cl)cc4Cl)O3)cc2)CC1` [Entry 20], the 50% inhibitory concentration (IC50) is 0.61 µM.

Consider `CCCS(=O)(=O)N1CCN(c2ccc(OC[C@@H]3CO[C@@](Cn4ccnc4)(c4ccc(Cl)cc4Cl)O3)cc2)CC1` [Entry 22], for which the IC50 came out at 0.008 µM.

For the compound `CC(C)CS(=O)(=O)N1CCN(c2ccc(OC[C@@H]3CO[C@@](Cn4ccnc4)(c4ccc(Cl)cc4Cl)O3)cc2)CC1` [Entry 23], the IC50 came to 0.045 µM.

Turning to `O=S(=O)(CCC(F)(F)F)N1CCN(c2ccc(OC[C@@H]3CO[C@@](Cn4ccnc4)(c4ccc(Cl)cc4Cl)O3)cc2)CC1` [Entry 27], the 50% inhibitory concentration (IC50) is 0.24 µM.

Take `O=S(=O)(CC(F)F)N1CCN(c2ccc(OC[C@@H]3CO[C@@](Cn4ccnc4)(c4ccc(Cl)cc4Cl)O3)cc2)CC1` [Entry 29]: the IC50 is 0.011 µM.

Turning to `N=C(N)N1CCN(c2ccc(OC[C@@H]3CO[C@@](Cn4ccnc4)(c4ccc(Cl)cc4Cl)O3)cc2)CC1` [Entry 33], the IC50 is 0.34 µM.

Another assay concerns the target T2, recombinant CYP-21 (Homo sapiens, UniProt P08686).
T2 construct: expressed in transfected cells
T2 sequence (P08686 1-495): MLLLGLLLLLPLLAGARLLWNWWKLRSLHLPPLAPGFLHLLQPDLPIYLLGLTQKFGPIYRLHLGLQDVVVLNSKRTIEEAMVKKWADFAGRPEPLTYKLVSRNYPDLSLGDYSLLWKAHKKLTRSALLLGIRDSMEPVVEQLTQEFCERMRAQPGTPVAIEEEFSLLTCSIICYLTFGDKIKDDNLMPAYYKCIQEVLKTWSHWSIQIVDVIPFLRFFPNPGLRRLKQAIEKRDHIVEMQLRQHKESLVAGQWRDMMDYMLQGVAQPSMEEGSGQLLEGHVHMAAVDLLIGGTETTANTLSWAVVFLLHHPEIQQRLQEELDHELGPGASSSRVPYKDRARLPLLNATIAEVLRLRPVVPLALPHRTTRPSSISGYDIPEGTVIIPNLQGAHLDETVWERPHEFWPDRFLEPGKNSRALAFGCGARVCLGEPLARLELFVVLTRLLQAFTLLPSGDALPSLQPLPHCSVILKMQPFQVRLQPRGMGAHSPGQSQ
Nature of the assay: Cyp21 assay: AD293 cells over-expressing recombinant CYP-21, 11-deoxycortisol formation from 17α-OH Progesterone by LC/MS. The class given is cell-based. Conditions: eight concentrations 10 μM to 4.5 nM. On the procedure: (§1) Cyp21 assay protocol: AD293 cells that stably over-express recombinant CYP-21 were seeded in 96 well plates coated with poly D-lysine (10,000 cell per well) and incubated at 37° C. for 24 hours in Dulbecco's Modified Eagle Medium (DMEM) with Fetal Bovine Serum (FBS) that is stripped of hormones by charcoal treatment. The media is then removed, the cells are washed once with Phosphate buffer saline solution, and 50 μL Dulbecco's Modified Eagle Medium (DMEM) with Fetal Bovine Serum (FBS) that is stripped of hormones by charcoal treatment is added. Compounds of the disclosure are then added to the wells in eight concentration spanning 10 μM to 4.5 nM, and the plates are incubated for an additional 60 minutes at 37° C. 17α-OH Progesterone is then added (1.0 μM) and the plates are incubated for an additional 45 minutes at 37° C. After incubation, 50 uL of the supernatant (medium) is transferred into a fresh plate and 150 uL of an acetonitrile solution containing 200 ng/ml of Telmisartan is added. The sample is mixed and then placed in a centrifuge at 2000 rpm for 5 minutes.
In the case of `COC(=O)[C@H](Cc1ccccc1)NC(=O)N1CCN(c2ccc(OC[C@@H]3CO[C@@](Cn4ccnc4)(c4ccc(Cl)cc4Cl)O3)cc2)CC1` [Entry 17], the IC50 worked out at 0.36 µM.

As to `COC(=O)[C@@H](NC(=O)N1CCN(c2ccc(OC[C@H]3CO[C@](Cn4ccnc4)(c4ccc(Cl)cc4Cl)O3)cc2)CC1)C(C)C` [Entry 18], the IC50 came to 0.72 µM.

For `COC(=O)[C@H](Cc1ccccc1)NC(=O)N1CCN(c2ccc(OC[C@H]3CO[C@](Cn4ccnc4)(c4ccc(Cl)cc4Cl)O3)cc2)CC1` [Entry 19], the IC50 was 0.74 µM.

Regarding `O=S(=O)(CC(F)(F)F)N1CCN(c2ccc(OC[C@@H]3CO[C@@](Cn4ccnc4)(c4ccc(Cl)cc4Cl)O3)cc2)CC1` [Entry 20], the IC50 worked out at 0.078 µM.

For the compound `CCCS(=O)(=O)N1CCN(c2ccc(OC[C@@H]3CO[C@@](Cn4ccnc4)(c4ccc(Cl)cc4Cl)O3)cc2)CC1` [Entry 22], the IC50 came out at 0.128 µM.

On to `CC(C)CS(=O)(=O)N1CCN(c2ccc(OC[C@@H]3CO[C@@](Cn4ccnc4)(c4ccc(Cl)cc4Cl)O3)cc2)CC1` [Entry 23], for which the IC50 was 0.249 µM.

For `O=S(=O)(CCC(F)(F)F)N1CCN(c2ccc(OC[C@@H]3CO[C@@](Cn4ccnc4)(c4ccc(Cl)cc4Cl)O3)cc2)CC1` [Entry 27], the half-maximal inhibitory concentration (IC50) was determined as 0.373 µM.

Take `O=S(=O)(CC(F)F)N1CCN(c2ccc(OC[C@@H]3CO[C@@](Cn4ccnc4)(c4ccc(Cl)cc4Cl)O3)cc2)CC1` [Entry 29]: the IC50 worked out at 0.08 µM.

`N=C(N)N1CCN(c2ccc(OC[C@@H]3CO[C@@](Cn4ccnc4)(c4ccc(Cl)cc4Cl)O3)cc2)CC1` [Entry 33]: the IC50 is 10 µM.

A further assay concerns the target T3, recombinant CYP-11 (Homo sapiens, UniProt P15538).
T3 construct: expressed in transfected cells
T3 sequence (P15538 25-503): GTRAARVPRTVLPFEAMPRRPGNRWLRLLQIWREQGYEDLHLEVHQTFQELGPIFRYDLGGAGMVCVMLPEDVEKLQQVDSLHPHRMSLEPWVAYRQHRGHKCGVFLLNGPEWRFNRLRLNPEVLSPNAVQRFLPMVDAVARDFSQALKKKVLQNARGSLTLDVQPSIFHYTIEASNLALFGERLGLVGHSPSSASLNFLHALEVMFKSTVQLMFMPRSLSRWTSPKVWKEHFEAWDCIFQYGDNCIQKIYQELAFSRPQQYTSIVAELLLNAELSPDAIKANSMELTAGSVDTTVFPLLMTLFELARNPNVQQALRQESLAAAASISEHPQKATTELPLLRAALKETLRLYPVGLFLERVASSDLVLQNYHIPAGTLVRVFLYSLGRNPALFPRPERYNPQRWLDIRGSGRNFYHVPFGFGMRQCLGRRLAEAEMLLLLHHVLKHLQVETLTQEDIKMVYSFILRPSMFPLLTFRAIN
Nature of the assay: Cyp11 assay: AD293 cells over-expressing recombinant CYP-11, cortisol formation from 11-deoxycortisol by LC/MS. The class given is cell-based. The note with it: eight concentrations 10 μM to 4.5 nM. As to the method:
as §1, with “AD293” for “Cyp21 assay protocol: AD293”, “CYP-11” for “CYP-21”, “(15,000” for “(10,000”, “11-deoxycortisol” for “17α-OH Progesterone”, “(2.0” for “(1.0”, “12 hours” for “45 minutes”
In the case of `COC(=O)[C@H](Cc1ccccc1)NC(=O)N1CCN(c2ccc(OC[C@@H]3CO[C@@](Cn4ccnc4)(c4ccc(Cl)cc4Cl)O3)cc2)CC1` [Entry 17], the IC50 was 0.1 µM.

As to `COC(=O)[C@@H](NC(=O)N1CCN(c2ccc(OC[C@H]3CO[C@](Cn4ccnc4)(c4ccc(Cl)cc4Cl)O3)cc2)CC1)C(C)C` [Entry 18], the IC50 was determined as 0.11 µM.

`COC(=O)[C@H](Cc1ccccc1)NC(=O)N1CCN(c2ccc(OC[C@H]3CO[C@](Cn4ccnc4)(c4ccc(Cl)cc4Cl)O3)cc2)CC1` [Entry 19]: the IC50 is 0.24 µM.

On to `O=S(=O)(CC(F)(F)F)N1CCN(c2ccc(OC[C@@H]3CO[C@@](Cn4ccnc4)(c4ccc(Cl)cc4Cl)O3)cc2)CC1` [Entry 20], for which the IC50 worked out at 0.07 µM.

As for `CCCS(=O)(=O)N1CCN(c2ccc(OC[C@@H]3CO[C@@](Cn4ccnc4)(c4ccc(Cl)cc4Cl)O3)cc2)CC1` [Entry 22], the half-inhibitory concentration (IC50) turned out to be 0.091 µM.

For the compound `CC(C)CS(=O)(=O)N1CCN(c2ccc(OC[C@@H]3CO[C@@](Cn4ccnc4)(c4ccc(Cl)cc4Cl)O3)cc2)CC1` [Entry 23], the half-inhibitory concentration (IC50) is 0.388 µM.

On to `O=S(=O)(CCC(F)(F)F)N1CCN(c2ccc(OC[C@@H]3CO[C@@](Cn4ccnc4)(c4ccc(Cl)cc4Cl)O3)cc2)CC1` [Entry 27], for which the IC50 was 10 µM.

For `O=S(=O)(CC(F)F)N1CCN(c2ccc(OC[C@@H]3CO[C@@](Cn4ccnc4)(c4ccc(Cl)cc4Cl)O3)cc2)CC1` [Entry 29], the IC50 came to 0.28 µM.

As for `N=C(N)N1CCN(c2ccc(OC[C@@H]3CO[C@@](Cn4ccnc4)(c4ccc(Cl)cc4Cl)O3)cc2)CC1` [Entry 33], the concentration for half-maximal inhibition (IC50) was 1.9 µM.

Source of the values: US20150353530A1 (CORTENDO AB (PUBL), priority 2013, published 2015).
